Target: T1, α-Glucosidase from Saccharomyces cerevisiae (Saccharomyces cerevisiae, UniProt P53341)
T1 construct: purchased Sigma-Aldrich (Madrid, Spain)
Experiment: α-Glucosidase inhibition assay (pNPG, absorbance 405 nm)
Type: biochemical
Details: 1 mg/mL
Experimental: α-Glucosidase inhibition assay was performed following the previous method. Each 96-well microplate contained: 50 μL apple extract or the reference at different concentration and 100 μL of α-GLU (1U/mL) in phosphate buffer (pH 6.9). After 10 min, 50 μL of PNPG (50 μL) were added and incubated for 20 min at 37 °C. The absorbance was read at 405 nm. The percentage inhibition of α-glucosidase was calculated using the following formula:% inhibition = [(Abscontrol − AbsSample)/Abscontrol] × 100(1)

T1 sequence (P53341 whole entry): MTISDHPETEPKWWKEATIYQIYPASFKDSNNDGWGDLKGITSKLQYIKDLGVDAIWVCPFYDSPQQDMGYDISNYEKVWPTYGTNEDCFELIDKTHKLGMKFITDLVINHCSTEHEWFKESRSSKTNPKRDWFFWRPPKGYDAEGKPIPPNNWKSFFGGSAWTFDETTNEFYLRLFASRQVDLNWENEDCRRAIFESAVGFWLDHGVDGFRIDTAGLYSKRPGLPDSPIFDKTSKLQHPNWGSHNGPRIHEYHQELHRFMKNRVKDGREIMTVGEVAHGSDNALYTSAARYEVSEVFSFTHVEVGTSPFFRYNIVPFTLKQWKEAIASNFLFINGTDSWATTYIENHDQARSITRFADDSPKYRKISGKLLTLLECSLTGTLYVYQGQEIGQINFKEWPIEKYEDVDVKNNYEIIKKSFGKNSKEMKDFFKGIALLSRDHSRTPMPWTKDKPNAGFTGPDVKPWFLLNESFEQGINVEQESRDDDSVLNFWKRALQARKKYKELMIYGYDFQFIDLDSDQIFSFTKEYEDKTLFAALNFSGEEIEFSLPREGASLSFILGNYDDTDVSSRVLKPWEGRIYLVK

C[C@H]1O[C@H](O[C@H]2[C@H](O)[C@@H](O)[C@@H](O[C@H]3[C@H](O)[C@@H](O)C(O)O[C@@H]3CO)O[C@@H]2CO)[C@H](O)[C@@H](O)[C@@H]1N[C@H]1C=C(CO)[C@@H](O)[C@H](O)[C@H]1O (stereo partly shown) [Acarbose]
inhibition at 1000 µg/mL: 100%

From PMC7344947, “Phytochemicals and Enzyme Inhibitory Capacities of the Methanolic Extracts from the Italian Apple Cultivar Mela Rosa dei Monti Sibillini” (Pharmaceuticals, 2020)
